Results from patent US9174984B2, “Chemical compounds” (GlaxoSmithKline Intellectual Property (No. 2) Limited, priority 2011, dated 2015).
Several values for one entry are separate records, joined by “and”; a condition that tells them apart may be missing. Equal values may be shown once. Read-outs that look alike come from different tables or passages of the source.

Legend:
[1] = molecular target: T1, Human DNMT3b/3L (Homo sapiens, UniProt Q9UBC3); assay: DNMT inhibition assay (3H-SAM filter-binding) against DNMT3b/3L; type: biochemical; conditions: read-out: IC50 against DNMT 3b/3L
T1 construct: truncated 3b (catalytic domain)
Protocol: DNMT Assays Used for Examples 1-114
Human DNMT3b/3L was coexpressed using truncated 3b (catalytic domain) and 3L (DNA binding domain) at GSK. Human full-length DNMT1 enzyme purchased from BPS Biosciences. Poly(dIdC) DNA (Sigma) was used at 0.002 mg/mL. Tritiated SAM (Perkin Elmer) was used at 500 nM. DNA, DNMT enzyme, and inhibitors were mixed with assay buffer (20 mM Tris pH8, 5% glycerol, 1 mM EDTA, 100 μg/mL BSA, 1 mM DTT, 50 mM NaCl) and pre-incubated without SAM for 30 min. H3 SAM was then added to initiate the methylation reaction which continues at 37° C. for 1 h. Reaction mixture was then transferred to a filter plate (Millipore Multiscreen HTS DE), then washed with 50 mM H2PO4 and 95% Ethanol. Scintillation counts were measured on the Perkin Elmer Microbeta scintillation counter.
DNMT Assays Used for Examples 115-120
DNMT enzymes were produced by GlaxoSmithKline. Human DNMT3b/3L was coexpressed using truncated 3b (catalytic domain) and 3L (DNA binding domain). DNMT1 was human, full-length protein. 3H-SAM was purchased from Perkin Elmer. Custon DNA oligonucleotide substrates were purchased from Integrated DNA technologies.
28-mer DNA Oligonucleotide Duplex (for DNMT3b/3L)
DNMT enzyme was preincubated with compound for 1 hr at RT, after which SAM and DNA were added to initiate the methylation reaction. The methylation reaction was quenched after 20 min upon the addition of >100 fold excess non-radioactive SAM. The quenched reaction mixture (80%) was transferred to a DEAE filter binding plate (Millipore Multiscreen HTS DE), washed with 3 volumes of 50 mM phosphate buffer and dried. Scintillation cocktail (MicroScint-20) was added to the plate and radioactivity (3H-DNA) was measured using a Perkin Elmer TopCount scintillation counter.
Final reagent concentrations (prior to quench) consisted of the following:
DNMT3b/3L (10 nM), 200 nM DNA, 200 nM 3H-SAM in 20 mM Tris (pH 8), 1 mM DTT, 1 mM EDTA, 25 mM NaCl, 1 mM CHAPS and 2% DMSO.

[2] = molecular target: T2, Human full-length DNMT1 (Homo sapiens, UniProt P26358); assay: DNMT inhibition assay (3H-SAM filter-binding) against DNMT1; type: biochemical
T2 construct: Human full-length DNMT1 enzyme purchased from BPS Biosciences; purchased BPS Biosciences

[3] = at least one experimental run or average of several runs, Examples 1-114 and 115-120 use different protocols

T2 sequence (P26358 whole entry): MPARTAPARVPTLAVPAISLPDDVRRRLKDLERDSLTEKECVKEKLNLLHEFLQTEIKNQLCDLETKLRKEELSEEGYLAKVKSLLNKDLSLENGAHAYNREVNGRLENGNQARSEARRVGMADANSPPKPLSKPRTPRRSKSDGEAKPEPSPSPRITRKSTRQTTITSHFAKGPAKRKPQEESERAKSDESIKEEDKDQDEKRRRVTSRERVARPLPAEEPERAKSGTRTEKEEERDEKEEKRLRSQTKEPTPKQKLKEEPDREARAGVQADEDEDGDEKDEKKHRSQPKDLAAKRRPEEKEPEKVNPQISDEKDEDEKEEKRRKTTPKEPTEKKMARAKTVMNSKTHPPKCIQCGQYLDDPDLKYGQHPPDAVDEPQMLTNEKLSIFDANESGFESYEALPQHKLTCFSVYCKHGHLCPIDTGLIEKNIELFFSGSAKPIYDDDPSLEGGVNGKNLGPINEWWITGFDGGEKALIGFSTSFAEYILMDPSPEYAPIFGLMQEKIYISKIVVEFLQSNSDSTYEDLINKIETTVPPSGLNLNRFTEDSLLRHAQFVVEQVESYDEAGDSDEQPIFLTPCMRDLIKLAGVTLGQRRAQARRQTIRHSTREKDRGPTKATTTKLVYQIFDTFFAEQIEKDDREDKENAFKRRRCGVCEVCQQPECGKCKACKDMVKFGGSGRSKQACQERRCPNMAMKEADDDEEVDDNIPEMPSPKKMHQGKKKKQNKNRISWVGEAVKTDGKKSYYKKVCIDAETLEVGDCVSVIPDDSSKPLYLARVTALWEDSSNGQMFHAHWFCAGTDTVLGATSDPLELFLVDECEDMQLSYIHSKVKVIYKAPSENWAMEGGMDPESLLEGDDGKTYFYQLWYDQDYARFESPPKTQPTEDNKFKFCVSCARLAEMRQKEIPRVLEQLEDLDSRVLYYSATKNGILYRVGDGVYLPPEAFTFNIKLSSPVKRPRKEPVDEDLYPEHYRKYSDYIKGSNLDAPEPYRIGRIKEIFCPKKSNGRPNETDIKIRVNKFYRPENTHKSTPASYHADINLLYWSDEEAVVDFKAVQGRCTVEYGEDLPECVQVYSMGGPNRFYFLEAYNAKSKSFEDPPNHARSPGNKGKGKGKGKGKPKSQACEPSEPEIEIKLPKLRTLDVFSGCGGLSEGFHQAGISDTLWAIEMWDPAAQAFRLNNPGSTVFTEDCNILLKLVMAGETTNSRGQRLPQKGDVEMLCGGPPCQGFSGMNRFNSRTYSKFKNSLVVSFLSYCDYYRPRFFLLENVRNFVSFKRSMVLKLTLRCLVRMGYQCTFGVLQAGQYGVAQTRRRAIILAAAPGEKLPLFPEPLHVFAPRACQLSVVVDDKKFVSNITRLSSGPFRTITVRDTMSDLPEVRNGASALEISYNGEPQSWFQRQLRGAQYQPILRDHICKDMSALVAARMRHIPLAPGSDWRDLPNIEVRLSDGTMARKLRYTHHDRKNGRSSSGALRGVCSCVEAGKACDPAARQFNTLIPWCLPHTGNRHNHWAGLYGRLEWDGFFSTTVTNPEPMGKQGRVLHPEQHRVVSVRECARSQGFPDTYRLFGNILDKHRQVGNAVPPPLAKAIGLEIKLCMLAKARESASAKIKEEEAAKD

| SMILES | IC50 [1, 3] | IC50 [2, 3] | also measured |
| --- | --- | --- | --- |
| CC#CC(=O)Nc1ccccc1CNS(=O)(=O)NCc1ccnc2[nH]ccc12 [Example 42, N-(2-(((N-((1H-pyrrolo[2,3-b]pyridin-4-yl)methyl)sulfamoyl)amino)methyl)phenyl)but-2-ynamide] | ≤ 20 µM | 19.1 to 300 µM | – |
| S=C(NCc1ccccc1C1CCCNC1)NCc1ccnc2[nH]ccc12 (stereo not drawn) [Example 116, 1-((1H-pyrrolo[2,3-b]pyridin-4-yl)methyl)-3-(2-(piperidin-3-yl)benzyl)thiourea] | ≤ 10 µM | ≤ 100 µM | – |
| NC(CCCCNC(=S)NCc1ccnc2[nH]ccc12)C(=O)O (stereo not drawn) [Example 46, 6-(3-((1H-pyrrolo[2,3-b]pyridin-4-yl)methyl)thioureido)-2-aminohexanoic acid] | – | 19.1 to 300 µM | – |
| NCC(=O)Nc1ccccc1CNC(=S)NCc1ccnc2[nH]ccc12 [Example 114, N-(2-((3-((1H-Pyrrolo[2,3-b]pyridin-4-yl)methyl)thioureido)methyl)phenyl)-2-aminoacetamide] | – | 19.1 to 300 µM and ≤ 200 µM | – |
| O=C(C#Cc1ccc([N+](=O)[O-])cc1)NCCNC(=S)NCc1ccnc2[nH]ccc12 [Example 87, N-(2-(3-((1H-pyrrolo[2,3-b]pyridin-4-yl)methyl)thioureido)ethyl)-3-(4-nitrophenyl)propiolamide] | ≤ 1 µM | 19.1 to 300 µM and ≤ 100 µM | – |
| O=C(C#Cc1ccc2c(c1)OCO2)NCCNC(=S)NCc1ccnc2[nH]ccc12 [Example 93, N-(2-(3-((1H-pyrrolo[2,3-b]pyridin-4-yl)methyl)thioureido)ethyl)-3-(benzo[d][1,3]dioxol-5-yl)propiolamide] | – | 19.1 to 300 µM and ≤ 100 µM | – |
| O=C(C#Cc1cccc(F)c1)NCCNC(=S)NCc1ccnc2[nH]ccc12 [Example 86, N-(2-(3-((1H-pyrrolo[2,3-b]pyridin-4-yl)methyl)thioureido)ethyl)-3-(3-fluorophenyl)propiolamide] | – | 19.1 to 300 µM and 75 µM and ≤ 100 µM | – |
| COCC#CC(=O)Nc1cccc(CNC(=S)NCc2ccnc3[nH]ccc23)c1 [Example 41, N-(3-((3-((1H-pyrrolo[2,3-b]pyridin-4-yl)methyl)thioureido)methyl)phenyl)-4-methoxybut-2-ynamide] | – | – | IC50 [1]: ≤ 1 µM; IC50 ([2]; read-out: IC50 against DNMT 1): 19.1 to 300 µM and ≤ 200 µM |
| COc1ccc(C#CC(=O)NCCNC(=S)NCc2ccnc3[nH]ccc23)cc1OC [Example 92, N-(2-(3-((1H-pyrrolo[2,3-b]pyridin-4-yl)methyl)thioureido)ethyl)-3-(3,4-dimethoxyphenyl)propiolamide] | – | 19.1 to 300 µM and ≤ 100 µM | – |
| C=CC(=O)Nc1cc(CNC(=S)NCc2ccnc3[nH]ccc23)cc(C(F)(F)F)c1 [Example 35, N-(3-((3-((1H-pyrrolo[2,3-b]pyridin-4-yl)methyl)thioureido)methyl)-5-(trifluoromethyl)phenyl)acrylamide] | ≤ 20 µM | 19.1 to 300 µM | – |
| O=C(C#Cc1ccc(F)cc1)NCCNC(=S)NCc1ccnc2[nH]ccc12 [Example 85, N-(2-(3-((1H-pyrrolo[2,3-b]pyridin-4-yl)methyl)thioureido)ethyl)-3-(4-fluorophenyl)propiolamide] | – | 19.1 to 300 µM and ≤ 200 µM | – |
| Nc1ccccc1CNC(=S)NCc1ccnc2[nH]ccc12 [Example 26, 1-((1H-pyrrolo[2,3-b]pyridin-4-yl)methyl)-3-(2-aminobenzyl)thiourea] | – | 19.1 to 300 µM | – |
| Nc1ccc([N+](=O)[O-])cc1CNC(=S)NCc1ccnc2[nH]ccc12 [Example 30, 1-((1H-pyrrolo[2,3-b]pyridin-4-yl)methyl)-3-(2-amino-5-nitrobenzyl)thiourea] | – | 19.1 to 300 µM and ≤ 100 µM | – |
| O=C(C#Cc1ccc(Cl)cc1)NCCNC(=S)NCc1ccnc2[nH]ccc12 [Example 89, N-(2-(3-((1H-pyrrolo[2,3-b]pyridin-4-yl)methyl)thioureido)ethyl)-3-(4-chlorophenyl)propiolamide] | – | 19.1 to 300 µM and ≤ 200 µM | – |
| O=C(C#Cc1ccccc1)NCc1ccccc1CNC(=O)NCc1ccnc2[nH]ccc12 [Example 21, N-(2-((3-((1H-pyrrolo[2,3-b]pyridin-4-yl)methyl)ureido)methyl)benzyl)-3-phenylpropiolamide] | – | – | IC50 [1]: ≤ 1 µM |
| O=C(NCc1ccnc2[nH]ccc12)NC1CN(C(=O)C#CC2CCCCC2)C1 [Example 119, 1-((1H-pyrrolo[2,3-b]pyridin-4-yl)methyl)-3-(1-(3-cyclohexylpropioloyl)azetidin-3-yl)urea] | ≤ 1 µM | – | – |
| C=CC(=O)Nc1ccc([N+](=O)[O-])cc1CNC(=S)NCc1ccnc2[nH]ccc12 [Example 110, N-(2-((3-((1H-Pyrrolo[2,3-b]pyridin-4-yl)methyl)thioureido)methyl)-4-nitrophenyl)acrylamide] | – | 19.1 to 300 µM | – |
| Cc1ccc(C#CC(=O)NCCNC(=S)NCc2ccnc3[nH]ccc23)cc1 [Example 88, N-(2-(3-((1H-pyrrolo[2,3-b]pyridin-4-yl)methyl)thioureido)ethyl)-3-(p-tolyl)propiolamide] | – | 19.1 to 300 µM | – |
| O=C(C#CC1CCCC1)Nc1cccc(CNC(=O)NCc2ccnc3[nH]ccc23)c1 [Example 118, N-(3-((3-((1H-pyrrolo[2,3-b]pyridin-4-yl)methyl)ureido)methyl)phenyl)-3-cyclopentylpropiolamide] | ≤ 1 µM | – | – |
